Assay results taken from the NIST ThermoML archive (doi:10.1021/je8008649).

Assay: mn = molality of the nth substance listed, in mol/kg
Conditions: 101 kPa, Liquid

NO.O=S(=O)(O)O [hydroxylammonium hydrogen sulfate] + O
Conditions | mass density, 283.15 K [kg/m3] | mass density, 288.15 K [kg/m3] | mass density, 293.15 K [kg/m3] | mass density, 298.15 K [kg/m3] | mass density, 303.15 K [kg/m3] | mass density, 308.15 K [kg/m3] | mass density, 313.15 K [kg/m3] | viscosity, 298.15 K [mPa·s] | viscosity, 303.15 K [mPa·s] | viscosity, 308.15 K [mPa·s]
m1 = 0.0075 | 1000.57 | 999.95 | 999.03 | 997.89 | 996.46 | 994.84 | 993 | – | – | –
m1 = 0.0204 | – | – | – | – | – | – | – | 0.897 | 0.806 | 0.727
m1 = 0.038 | 1003.84 | 1003.18 | 1002.23 | 1001.03 | 999.59 | 997.95 | 996.09 | – | – | –
m1 = 0.0473 | – | – | – | – | – | – | – | 0.909 | 0.814 | 0.736
m1 = 0.0702 | 1007.27 | 1006.56 | 1005.58 | 1004.34 | 1002.88 | 1001.17 | 999.12 | 0.914 | 0.821 | 0.741
m1 = 0.2199 | 1022.47 | 1021.57 | 1020.43 | 1019.05 | 1017.48 | 1015.7 | 1013.04 | – | – | –
m1 = 0.2315 | – | – | – | – | – | – | – | 0.968 | 0.869 | 0.787
m1 = 0.3709 | 1036.87 | 1035.81 | 1034.52 | 1033.05 | 1031.38 | 1029.51 | 1027.24 | 1.019 | 0.912 | 0.823
m1 = 0.4314 | 1042.64 | 1041.22 | 1039.97 | 1038.36 | 1036.73 | 1034.77 | 1032.85 | 1.035 | 0.927 | 0.838
m1 = 0.5334 | 1051.59 | 1050.39 | 1048.98 | 1047.39 | 1045.61 | 1043.69 | 1041.6 | 1.069 | 0.961 | 0.867
m1 = 0.8069 | 1075.32 | 1073.9 | 1071.96 | 1070.2 | 1068.3 | 1066.3 | 1064.15 | 1.167 | 1.053 | 0.95
m1 = 0.9684 | 1088.31 | 1086.8 | 1085.12 | 1083.29 | 1081.32 | 1079.23 | 1076.98 | – | – | –
m1 = 1.044 | – | – | – | – | – | – | – | 1.256 | 1.128 | 1.02
m1 = 1.165 | 1103.23 | 1101.58 | 1099.81 | 1097.89 | 1095.85 | 1093.7 | 1091.42 | – | – | –
m1 = 1.324 | – | – | – | – | – | – | – | 1.369 | 1.237 | 1.112
m1 = 1.478 | 1126.68 | 1124.91 | 1123 | 1120.96 | 1118.82 | 1116.5 | 1113.63 | – | – | –
m1 = 1.589 | – | – | – | – | – | – | – | 1.483 | 1.333 | 1.201
m1 = 1.851 | 1151.94 | 1149.99 | 1147.92 | 1145.49 | 1142.34 | 1141.16 | 1138.36 | – | – | –
m1 = 1.915 | – | – | – | – | – | – | – | 1.631 | 1.463 | 1.319
m1 = 2.088 | – | – | – | – | – | – | – | 1.732 | 1.542 | 1.386
m1 = 2.461 | 1188.98 | 1186.87 | 1184.69 | 1182.41 | 1180.07 | 1177.64 | 1175.14 | – | – | –
m1 = 2.847 | – | – | – | – | – | – | – | 2.123 | 1.887 | 1.702
m1 = 2.998 | 1218.05 | 1215.84 | 1213.55 | 1211.21 | 1208.79 | 1206.32 | 1203.99 | – | – | –

N.N.O=S(=O)(O)O [ammonium sulfate] + O
m1 = 4.655
Conditions | mass density [kg/m3] | viscosity [mPa·s]
293.15 K | 1217.66 | –
298.15 K | 1215.79 | 2.114
303.15 K | 1213.89 | 1.944
308.15 K | 1211.94 | 1.785
313.15 K | 1209.97 | –
